Results on 30 molecules are retold here after US11046699B2, “Pyrazolo-pyrimidin-amino-cycloalkyl compounds and their therapeutic uses” (RAPT THERAPEUTICS, INC., priority 2018, dated 2021).

GCN2, sequence (Q9P2K8 whole entry): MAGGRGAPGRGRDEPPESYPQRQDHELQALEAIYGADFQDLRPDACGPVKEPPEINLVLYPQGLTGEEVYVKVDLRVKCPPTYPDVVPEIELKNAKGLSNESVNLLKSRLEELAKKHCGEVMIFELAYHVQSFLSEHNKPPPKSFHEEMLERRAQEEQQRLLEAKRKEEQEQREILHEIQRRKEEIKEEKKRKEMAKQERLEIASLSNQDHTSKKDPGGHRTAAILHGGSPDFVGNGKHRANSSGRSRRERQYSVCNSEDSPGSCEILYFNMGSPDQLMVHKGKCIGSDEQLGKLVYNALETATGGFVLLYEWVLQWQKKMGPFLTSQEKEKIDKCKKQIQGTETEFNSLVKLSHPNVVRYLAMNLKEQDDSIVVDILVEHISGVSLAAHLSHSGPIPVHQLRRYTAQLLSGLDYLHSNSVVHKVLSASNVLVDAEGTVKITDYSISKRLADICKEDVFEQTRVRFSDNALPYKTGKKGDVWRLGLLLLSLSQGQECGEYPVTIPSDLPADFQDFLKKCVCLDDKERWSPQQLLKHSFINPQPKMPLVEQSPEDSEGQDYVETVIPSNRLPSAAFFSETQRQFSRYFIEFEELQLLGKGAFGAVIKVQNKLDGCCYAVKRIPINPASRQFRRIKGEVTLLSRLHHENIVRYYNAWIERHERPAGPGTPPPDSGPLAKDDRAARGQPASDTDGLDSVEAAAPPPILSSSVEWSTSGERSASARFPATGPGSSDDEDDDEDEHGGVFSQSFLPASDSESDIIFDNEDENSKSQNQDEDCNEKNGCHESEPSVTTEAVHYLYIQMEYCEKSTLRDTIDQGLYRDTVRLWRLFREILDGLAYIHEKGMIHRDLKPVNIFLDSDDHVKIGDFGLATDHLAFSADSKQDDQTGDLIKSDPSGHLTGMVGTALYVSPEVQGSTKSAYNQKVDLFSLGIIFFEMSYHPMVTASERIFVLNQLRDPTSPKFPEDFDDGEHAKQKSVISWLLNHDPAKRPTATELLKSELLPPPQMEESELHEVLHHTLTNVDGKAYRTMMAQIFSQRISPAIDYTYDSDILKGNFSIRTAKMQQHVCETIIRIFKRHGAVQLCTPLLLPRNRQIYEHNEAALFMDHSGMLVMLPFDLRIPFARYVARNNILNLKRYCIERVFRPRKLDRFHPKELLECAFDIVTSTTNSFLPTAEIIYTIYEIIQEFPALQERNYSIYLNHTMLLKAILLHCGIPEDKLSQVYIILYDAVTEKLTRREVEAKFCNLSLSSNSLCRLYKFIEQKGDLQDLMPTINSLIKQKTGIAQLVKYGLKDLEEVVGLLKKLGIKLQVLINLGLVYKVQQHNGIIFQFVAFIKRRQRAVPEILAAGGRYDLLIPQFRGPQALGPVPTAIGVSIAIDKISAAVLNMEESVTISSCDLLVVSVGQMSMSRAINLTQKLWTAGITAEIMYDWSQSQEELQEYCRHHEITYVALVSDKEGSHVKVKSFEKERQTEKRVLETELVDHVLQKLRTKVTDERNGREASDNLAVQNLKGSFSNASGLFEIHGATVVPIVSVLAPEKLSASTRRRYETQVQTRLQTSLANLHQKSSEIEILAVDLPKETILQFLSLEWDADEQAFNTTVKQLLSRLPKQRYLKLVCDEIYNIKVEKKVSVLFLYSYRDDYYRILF

One experiment deals with GCN2 (Homo sapiens, UniProt Q9P2K8). Briefly: GCN2 enzymatic endpoint assay: phosphorylation of GFP-eIF2α measured by TR-FRET (Lanthascreen). The following applies: GCN2 biochemical IC50; 4 nM GCN2, 2 μM ATP, 80 nM GFP-eIF2α, 90 min RT; read-out: GCN2 activity. The experiment is classed as biochemical. In short, it runs like this:
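Endpoint GCN2 reaction with low ATP (2 μM) and 80 nM GFP-eIF2α, room temperature, 90 minutes. Detection mix with EDTA and Tb-labelled antibody; 520 nm/495 nm emission ratio reported.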
As for `Cn1cnc2ccc(-n3nc(Br)c4cnc(N[C@@H]5CC[C@@](C)(O)C5)nc43)cc2c1=O` [Example 70, 6-(3-bromo-6-(((1R,3R)-3-hydroxy-3-methylcyclopentyl)amino)-1H-pyrazolo[3,4-d]pyrimidin-1-yl)-3-methylquinazolin-4(3H)-one], the IC50 is less than 25 nM.

Consider `CN(C)C(=O)[C@]1(C)CC[C@@H](Nc2ncc3c(Br)nn(-c4cc(CCN)c5ncccc5c4)c3n2)C1` [Example 30, (1R,3R)-3-((1-(8-(2-aminoethyl)quinolin-6-yl)-3-bromo-1H-pyrazolo[3,4-d]pyrimidin-6-yl)amino)-N,N,1-trimethylcyclopentane-1-carboxamide; 2,2,2-trifluoroacetic acid], for which the IC50 is less than 25 nM.

In the case of `CNC(=O)[C@@H]1CC[C@@H](Nc2ncc3c(Br)nn(-c4ccc(-c5ncco5)cc4)c3n2)C1` [Example 10, (1R,3R)-3-((3-bromo-1-(4-(oxazol-2-yl)phenyl)-1H-pyrazolo[3,4-d]pyrimidin-6-yl)amino)-N-methylcyclopentane-1-carboxamide], the IC50 lay in the range of 25 to 200 nM.

Still in this experiment, the particulars now being: tested as described in Example 77; compound and/or hydrochloride, dihydrochloride or trifluoroacetic acid salt; read-out: IC 50 Activity.
In the case of `CNC(=O)[C@]1(C)CC[C@@H](Nc2ncc3c(Br)nn(-c4cc(Br)cc(CO)c4)c3n2)C1` [(1R,3R)-3-[[3-bromo-1-[3-bromo-5-(hydroxymethyl)phenyl]pyrazolo [3,4-d]pyrimidin-6-yl]amino]-N,1-dimethyl-cyclopentanecarboxamide], the IC50 is 25 to 200 nM.

With `CNC(=O)[C@]1(C)CC[C@@H](Nc2ncc3c(Br)nn(-c4cncc(C#N)c4)c3n2)C1` [(1R,3R)-3-[[3-bromo-1-(5-cyano-3-pyridyl)pyrazolo[3,4-d]pyrimidin-6-yl]amino]-N,1-dimethyl-cyclopentane-carboxamide], the IC50 lay in the range of 25 to 200 nM.

Take `CNC(=O)[C@]1(C)CC[C@@H](Nc2ncc3c(Br)nn(-c4ccc(-c5nnc(C(=O)N6CCNCC6)s5)cc4)c3n2)C1` [(1R,3R)-3-[[3-bromo-1-[4-[5-(piperazine-1-carbonyl)-1,3,4-thiadiazol-2-yl]phenyl]pyrazolo[3,4-d]pyrimidin-6-yl]amino]-N,1-dimethyl-cyclopentanecarboxamide]: the IC50 lay within 25 to 200 nM.

On to `CNC(=O)[C@@]1([C@H](C)C#N)CC[C@@H](Nc2ncc3c(Br)nn(-c4ccc(-c5nnc(C)s5)cc4)c3n2)C1` [(1S,3R)-3-[[3-bromo-1-[4-(5-methyl-1,3,4-thiadiazol-2-yl)phenyl]pyrazolo [3,4-d]pyrimidin-6-yl]amino]-1-[(1S)-1-cyanoethyl]-N-methyl-cyclopentane-carboxamide], for which the IC50 fell in the range of 25 to 200 nM.

With `CNC(=O)[C@]1(C)CC[C@@H](Nc2ncc3c(Br)nn(-c4ccc(-c5ncco5)c([C@@H]5CCNC5)c4)c3n2)C1` [(1R,3R)-3-[[3-bromo-1-[4-oxazol-2-yl-3-[(3S)-pyrrolidin-3-yl]phenyl]pyrazolo[3,4-d]pyrimidin-6-yl]amino]-N,1-dimethyl-cyclopentanecarboxamide], the IC50 was less than 25 nM.

Turning to `CNC(=O)N1CC[C@@H](Nc2ncc3c(Br)nn(-c4ccc(-c5nnc(C)s5)cc4)c3n2)C1` [(3R)-3-[[3-bromo-1-[4-(5-methyl-1,3,4-thiadiazol-2-yl)phenyl]pyrazolo [3,4-d]pyrimidin-6-yl]amino]-N-methyl-pyrrolidine-1-carboxamide], the IC50 lay in the range of 25 to 200 nM.

`CNC(=O)[C@]1(C)CC[C@@H](Nc2ncc3c(Br)nn(-c4ccc5nc(OC)ccc5c4)c3n2)C1` [(1R,3R)-3-[[3-bromo-1-(2-methoxy-6-quinolyl)pyrazolo[3,4-d]pyrimidin-6-yl]amino]-N,1-dimethyl-cyclopentane-carboxamide]: the IC50 fell in the range of 25 to 200 nM.

As for `CNC(=O)[C@]1(C)CC[C@@H](Nc2ncc3c(Br)nn(-c4cc(C#N)cc(CC#N)c4)c3n2)C1`, the IC50 lay in the range of 25 to 200 nM.

As to `CNC(=O)[C@]1(C)CC[C@@H](Nc2ncc3c(Br)nn(-c4cc(/C=C/P(C)(C)=O)c5ncccc5c4)c3n2)C1` [(1R,3R)-3-[[3-bromo-1-[8-[(E)-2-dimethylphosphorylvinyl]-6-quinolyl]pyrazolo[3,4-d]pyrimidin-6-yl]amino]-N,1-dimethyl-cyclopentanecarboxamide], the IC50 was in the range of 25 to 200 nM.

For the molecule `CNC(=O)[C@]1(CC(F)F)CC[C@@H](Nc2ncc3c(Br)nn(-c4cc(CC(C)(C)O)c5ncccc5c4)c3n2)C1` [(1R,3R)-3-[[3-bromo-1-[8-(2-hydroxy-2-methyl-propyl)-6-quinolyl]pyrazolo[3,4-d]pyrimidin-6-yl]amino]-1-(2,2-difluoroethyl)-N-methyl-cyclopentanecarboxamide], the IC50 lay in the range of 25 to 200 nM.

As to `CN(C)C(=O)[C@@H]1CC[C@@H](Nc2ncc3c(Br)nn(-c4cc(F)c5ncccc5c4)c3n2)C1` [(1R,3R)-3-((3-bromo-1-(8-fluoroquinolin-6-yl)-1H-pyrazolo[3,4-d]pyrimidin-6-yl)amino)-N,N-dimethylcyclopentane-1-carboxamide], the IC50 fell in the range of 25 to 200 nM.

`CN1CCN(C(=O)[C@@H]2CC[C@@H](Nc3ncc4c(Br)nn(-c5cc(C#N)c6ncccc6c5)c4n3)C2)CC1=O` [6-(3-bromo-6-(((1R,3R)-3-(4-methyl-3-oxo-piperazine-1-carbonyl)cyclopentyl)amino)-1H-pyrazolo[3,4-d]pyrimidin-1-yl)quinoline-8-carbonitrile]: the IC50 lay within 25 to 200 nM.

As for `CNC(=O)[C@]1(C)CC[C@@H](Nc2ncc3c(Br)nn(-c4ccc(-n5cncn5)cc4)c3n2)C1` [(1R,3R)-3-[[3-bromo-1-[4-(1,2,4-triazol-1-yl)phenyl]pyrazolo[3,4-d]pyrimidin-6-yl]amino]-N,1-dimethyl-cyclopentane-carboxamide], the IC50 lay within 25 to 200 nM.

Take `CNC(=O)[C@]1(C)CC[C@@H](Nc2ncc3c(Br)nn(-c4ccc5c(c4)OCC(=O)N5)c3n2)C1` [(1R,3R)-3-[[3-bromo-1-(3-oxo-4H-1,4-benzoxazin-7-yl)pyrazolo[3,4-d]pyrimidin-6-yl]amino]-N,1-dimethyl-cyclopentanecarboxamide]: the IC50 fell in the range of 25 to 200 nM.

In the case of `CNC(=O)[C@]1(C)CC[C@@H](Nc2ncc3c(Br)nn(-c4cc(Cl)c(F)c(CNS(C)(=O)=O)c4)c3n2)C1`, the IC50 is 25 to 200 nM.

As for `O=C([C@@H]1CC[C@@H](Nc2ncc3c(Br)nn(-c4ccc5ncccc5c4)c3n2)C1)N1C2CCC1COC2` [(3-oxa-8-azabicyclo[3.2.1]octan-8-yl)((1R,3R)-3-((3-bromo-1-(quinolin-6-yl)-1H-pyrazolo [3,4-d]pyrimidin-6-yl)amino)cyclopentyl) methanone], the IC50 fell in the range of 25 to 200 nM.

With `CCN(CC)C(=O)C1(C)CC[C@@H](Nc2ncc3c(Br)nn(-c4cc(F)c5ncccc5c4)c3n2)C1` (stereo partly drawn) [(3R)-3-[[3-bromo-1-(8-fluoro-6-quinolyl)pyrazolo[3,4-d]pyrimidin-6-yl]amino]-N,N-diethyl-1-methyl-cyclopentanecarboxamide], the IC50 fell in the range of 25 to 200 nM.

Regarding `CNC(=O)CC1CC(Nc2ncc3c(Br)nn(-c4cc(CCN)c5ccccc5c4)c3n2)C1` (stereo not drawn) [2-[3-[[1-[4-(2-aminoethyl)-2-naphthyl]-3-bromo-pyrazolo[3,4-d]pyrimidin-6-yl]amino]cyclobutyl]-N-methyl-acetamide; 2,2,2-trifluoroacetic acid], the IC50 was in the range of 25 to 200 nM.

For the molecule `Cn1ccnc1[C@@H]1CC[C@@H](Nc2ncc3c(Br)nn(-c4ccc5ncccc5c4)c3n2)C1` (relative stereo) [3-bromo-N-(trans-3-(1-methyl-1H-imidazol-2-yl)cyclopentyl)-1-(quinolin-6-yl)-1H-pyrazolo[3,4-d]pyrimidin-6-amine], the IC50 was in the range of 25 to 200 nM.

In the case of `CNC(=O)[C@]1(C)CC[C@@H](Nc2ncc3c(Br)nn(-c4ccn5c(=O)ccnc5c4)c3n2)C1` [(1R,3R)-3-[[3-bromo-1-(4-oxopyrido[1,2-a]pyrimidin-8-yl)pyrazolo[3,4-d]pyrimidin-6-yl]amino]-N,1-dimethyl-cyclopentane-carboxamide], the IC50 was 25 to 200 nM.

Consider `CNC(=O)[C@]1(C)CC[C@@H](Nc2ncc3c(Br)nn(-c4cc(C#N)cc(OCCOC)c4)c3n2)C1` [(1R,3R)-3-[[3-bromo-1-[3-cyano-5-(2-methoxyethoxy)phenyl]pyrazolo[3,4-d]pyrimidin-6-yl]amino]-N,1-dimethyl-cyclopentanecarboxamide], for which the IC50 fell in the range of 25 to 200 nM.

For `CNC(=O)[C@]1(C)CC[C@@H](Nc2ncc3c(Br)nn(-c4ccc(-n5nccn5)cc4)c3n2)C1` [(1R,3R)-3-[[3-bromo-1-[4-(triazol-2-yl)phenyl]pyrazolo[3,4-d]pyrimidin-6-yl]amino]-N,1-dimethyl-cyclopentane-carboxamide], the IC50 was in the range of 25 to 200 nM.

Consider `CNC(=O)[C@]1(C)CC[C@@H](Nc2ncc3c(Br)nn(-c4cc(CN[S+](C)[O-])c5nccnc5c4)c3n2)C1` (stereo partly drawn) [(1R,3R)-3-[[3-bromo-1-[8-(methane-sulfinamidomethyl)quinoxalin-6-yl]pyrazolo[3,4-d]pyrimidin-6-yl]amino]-N,1-dimethyl-cyclopentane-carboxamide], for which the IC50 lay in the range of 25 to 200 nM.

`CNC(=O)[C@]1(CC(F)F)CC[C@@H](Nc2ncc3c(Br)nn(-c4ccc(-c5cnccn5)cc4)c3n2)C1` [(1R,3R)-3-[[3-bromo-1-(4-pyrazin-2-ylphenyl)pyrazolo[3,4-d]pyrimidin-6-yl]amino]-1-(2,2-difluoroethyl)-N-methyl-cyclopentanecarboxamide]: the IC50 was 25 to 200 nM.

For the molecule `CNC(=O)C1(CC#N)CC[C@@H](Nc2ncc3c(Br)nn(-c4ccc(-c5nnc(C)s5)cc4)c3n2)C1` (stereo partly drawn), the IC50 is 25 to 200 nM.

On to `COCCNC(=O)[C@@H]1CC[C@@H](Nc2ncc3c(Br)nn(-c4cncc(OC)c4)c3n2)C1` [(1R,3R)-3-((3-bromo-1-(5-methoxypyridin-3-yl)-1H-pyrazolo[3,4-d]pyrimidin-6-yl)amino)-N-(2-methoxyethyl)cyclopentane-1-carboxamide], for which the IC50 was in the range of 500 to 1000 nM.

Turning to `CNC(=O)C1(CC#N)CC[C@@H](Nc2ncc3c(Br)nn(-c4ccc(-c5nnc(C)s5)c(CCC#N)c4)c3n2)C1` (stereo partly drawn), the IC50 was in the range of 25 to 200 nM.
